How the values were obtained:
[1] = molecular target: T1, rat B1R (Rattus norvegicus, UniProt P97583); assay: Functional investigation on the bradykinin receptor 1 (B1R), FLIPR Ca2+ assay, rB1R cells; type: cell-based; settings: % inhibition rat B1R at 10 μM; CHO K1 cells transfected with rat B1R; agonist Des-Arg9 bradykinin at EC80; read-out: % Inh. (rat B1R) 10 μM
T1 construct: expressed in transfected cells; host or cells: CHO K1 cells
T1 sequence (P97583 1-337): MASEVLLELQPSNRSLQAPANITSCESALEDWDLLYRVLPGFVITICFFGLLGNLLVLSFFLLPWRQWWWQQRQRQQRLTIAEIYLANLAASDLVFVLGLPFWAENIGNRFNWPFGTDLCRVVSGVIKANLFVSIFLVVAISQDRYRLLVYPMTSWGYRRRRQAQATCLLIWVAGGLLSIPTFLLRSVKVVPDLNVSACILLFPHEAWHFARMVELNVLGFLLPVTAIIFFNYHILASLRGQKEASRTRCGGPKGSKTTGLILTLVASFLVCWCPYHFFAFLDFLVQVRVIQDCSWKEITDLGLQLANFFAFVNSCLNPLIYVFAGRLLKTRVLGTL
Experimental: (§1) The agonistic or antagonistic action of substances can be quantified on the bradykinin receptor 1 (B1R) of the human and rat species with ectopically expressing cell lines (CHO K1 cells) and with the aid of a Ca^2+-sensitive dye (Fluo-4) using a fluorescent imaging plate reader (FLIPR). The indication in % activation is based on the Ca^2+ signal after addition of Lys-Des-Arg^9 bradykinin (0.5 nM) or Des-Arg^9 bradykinin (100 nM). Antagonists lead to a suppression of the Ca^2+ influx following administration of the agonist. The % inhibition in comparison with the maximum achievable inhibition is indicated.
(§2) The agonistic or antagonistic action of substances can be determined on the bradykinin 1 receptor (B1R) of the human and rat species with the following assay. According to this assay, the Ca^2+ inflow through the channel is quantified with the aid of a Ca^2+-sensitive dye (Fluo-4 type, Molecular Probes Europe BV, Leiden, The Netherlands) in a fluorescent imaging plate reader (FLIPR, Molecular Devices, Sunnyvale, USA).
(§3) Chinese hamster ovary cells (CHO K1 cells) which are stably transfected with the human B1R gene (hB1R cells) or the B1R gene of the rat (rB1R cells) are used. For functional investigations, these cells are plated-out onto black 96-well plates with a clear base (BD Biosciences, Heidelberg, Germany or Greiner, Frickenhausen, Germany) in a density of 20,000-35,000 cells/well. Overnight, the cells are incubated at 37° C. and 5% CO2 in culture medium (hB1R cells: Nutrient Mixture Ham's F12, Gibco Invitrogen GmbH, Karlsruhe, Germany or DMEM, Sigma-Aldrich, Taufkirchen, Germany; rB1R cells: D-MEM/F12, Gibco Invitrogen, Karlsruhe, Germany) with 10 vol. % FBS (foetal bovine serum, Gibco Invitrogen GmbH, Karlsruhe, Germany or PAN Biotech GmbH, Aidenbach, Germany). On the following day the cells are loaded with 2.13 μM Fluo-4 (Molecular Probes Europe BV, Leiden, The Netherlands) in HBSS buffer (Hank's buffered saline solution, Gibco Invitrogen GmbH, Karlsruhe, Germany) with 2.5 mM probenecid (Sigma-Aldrich, Taufkirchen, Germany) and 10 mM HEPES (Sigma-Aldrich, Taufkirchen, Germany) for 60 min at 37° C. The plates are the washed twice with HBSS buffer, and HBSS buffer which additionally contains 0.1% BSA (bovine serum albumin; Sigma-Aldrich, Taufkirchen, Germany), 5.6 mM glucose and 0.05% gelatine (Merck KGaA, Darmstadt, Germany) is added. After a further incubation of 20 minutes at room temperature, the plates are inserted into the FLIPR for Ca^2+ measurement. Alternatively they are washed with buffer A (15 mM HEPES, 80 mM NaCl, 5 mM KCl, 1.2 mM CaCl2, 0.7 mM MgSO4, 2 g/l glucose, 2.5 mM probenecid) and loaded with buffer A with added 2.5 μM Fluo-4 and 0.025% Pluronic F127 (Sigma-Aldrich, Taufkirchen, Germany). The cells are then washed twice with buffer A and incubated for 30 minutes with buffer A, which additionally contains 0.05% BSA and 0.05% gelatine, at room temperature and then used for Ca^2+ measurement in the FLIPR.
(§4) The Ca^2+-dependent fluorescence is measured here before and after addition of substances (λex=488 nm, λem=540 nm). The quantification is performed by measuring the highest fluorescence intensity (FC, fluorescence counts) over time.
(§5) The FLIPR protocol comprises two additions of substance. Test substances (10 μM) are first pipetted onto the cells and the Ca^2+ inflow is compared with the control (hB1R: Lys-Des-Arg^9 bradykinin>=50 nM; rB1R: Des-Arg^9 bradykinin 10 μM). The value in % activation based on the Ca^2+ signal after addition of Lys-Des-Arg^9 bradykinin (>=50 nM) or Des-Arg^9 bradykinin (10 μM) is obtained therefrom. After incubation for 10-20 minutes, Lys-Des-Arg^9 bradykinin (hB1R) or Des-Arg^9 bradykinin (rB1R) is applied in the EC80 concentration and the inflow of Ca^2+ is likewise determined. Antagonists lead to a suppression of the Ca^2+ inflow. The % inhibition in comparison with the maximum achievable inhibition is calculated. […]

[2] = molecular target: T2, human B1R (Homo sapiens, UniProt P46663); assay: Functional investigation on the bradykinin receptor 1 (B1R), FLIPR Ca2+ assay, hB1R cells; type: cell-based; settings: % inhibition human B1R at 10 μM; CHO K1 cells transfected with human B1R; agonist Lys-Des-Arg9 bradykinin at EC80; read-out: % Inh. (hum. B1R) 10 μM
T2 construct: expressed in transfected cells; host or cells: CHO K1 cells
T2 sequence (P46663 1-353): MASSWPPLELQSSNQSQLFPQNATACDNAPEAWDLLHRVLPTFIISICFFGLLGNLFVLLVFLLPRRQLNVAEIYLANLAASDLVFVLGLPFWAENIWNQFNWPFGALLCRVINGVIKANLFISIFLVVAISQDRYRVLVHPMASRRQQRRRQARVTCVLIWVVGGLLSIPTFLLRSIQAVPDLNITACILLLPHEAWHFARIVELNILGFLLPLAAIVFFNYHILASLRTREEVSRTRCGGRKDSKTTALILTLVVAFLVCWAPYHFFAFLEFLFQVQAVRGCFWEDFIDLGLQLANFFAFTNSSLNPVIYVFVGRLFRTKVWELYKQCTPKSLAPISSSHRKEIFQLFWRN
Experimental: as §1, §2, §3, §4, §5

SMILES | inhibition at 10 µM [1] [%] | inhibition at 10 µM [2] [%]
O=C(CC1CCCCN1S(=O)(=O)c1cccc(C(F)(F)F)c1)N1CCC2(CC1)CCC(c1cccc(F)c1)(N1CCCC1)CC2 (stereo not shown) [CC-01, 1-[3-(3-Fluorophenyl)-3-pyrrolidin-1-yl-9-azaspiro[5.5]undecan-9-yl]-2-[1-[[3-(trifluoromethyl)phenyl]sulfonyl]-piperidin-2-yl]-ethanone] | 75 | 73
COc1cc(C)c(S(=O)(=O)N2CCCCC2CCCC(=O)N2CCC3(CC2)CCC(c2cccc(F)c2)(N2CCCC2)CC3)c(C)c1 (stereo not shown) [CC-02, 1-[3-(3-Fluorophenyl)-3-pyrrolidin-1-yl-9-azaspiro[5.5]undecan-9-yl]-4-[1-[(4-methoxy-2,6-dimethyl-phenyl)sulfonyl]-pipereridin-2-yl]-butan-1-one] | 98 | 100
COc1cc(C)c(S(=O)(=O)N2CCCCC2COCC(=O)N2CCC3(CC2)CCC(c2cccc(F)c2)(N2CCCC2)CC3)c(C)c1 (stereo not shown) [CC-03, 1-[3-(3-Fluorophenyl)-3-pyrrolidin-1-yl-9-azaspiro[5.5]undecan-9-yl]-2-[[1-[(4-methoxy-2,6-dimethyl-phenyl)sulfonyl]-piperidin-2-yl]-methoxy]-ethanone] | 99 | 100
COc1cc(C)c(S(=O)(=O)N(CCOCC(=O)N2CCC3(CC2)CCC(c2cccc(F)c2)(N2CCCC2)CC3)C2CC2)c(C)c1 [CC-04, N-Cyclopropyl-N-[2-[2-[3-(3-fluorophenyl)-3-pyrrolidin-1-yl-9-azaspiro[5.5]undecan-9-yl]-2-oxo-ethoxy]-ethyl]-4-methoxy-2,6-dimethyl-benzenesulfonic acid amide] | 98 | 100
Cc1cccc(Cl)c1S(=O)(=O)N1CCCCC1COCC(=O)N1CCC2(CC1)CCC(c1cccc(F)c1)(N1CCCC1)CC2 (stereo not shown) [CC-05, 2-[[1-[(2-Chloro-6-methyl-phenyl)sulfonyl]-piperidin-2-yl]-methoxy]-1-[3-(3-fluorophenyl)-3-pyrrolidin-1-yl-9-azaspiro[5.5]undecan-9-yl]-ethanone] | 98 | 100
Cc1cccc(Cl)c1S(=O)(=O)N(CCOCC(=O)N1CCC2(CC1)CCC(c1cccc(F)c1)(N1CCCC1)CC2)C1CC1 [CC-06, 2-Chloro-N-cyclopropyl-N-[2-[2-[3-(3-fluorophenyl)-3-pyrrolidin-1-yl-9-azaspiro[5.5]undecan-9-yl]-2-oxo-ethoxy]-ethyl]-6-methyl-benzenesulfonic acid amide] | 97 | 100
Cc1cc(S(=O)(=O)N2CCCCC2CCC(=O)N2CCC3(CC2)CCC(c2cccc(F)c2)(N2CCCC2)CC3)c(C)cc1Cl (stereo not shown) [CC-07, 3-[1-[(4-Chloro-2,5-dimethyl-phenyl)sulfonyl]-piperidin-2-yl]-1-[3-(3-fluorophenyl)-3-pyrrolidin-1-yl-9-azaspiro[5.5]undecan-9-yl]-propan-1-one] | 86 | 99
O=C(CC(NS(=O)(=O)c1ccc2ccccc2c1)c1ccccc1)N1CCC2(CC1)CCC(c1cccc(F)c1)(N1CCCC1)CC2 (stereo not shown) [CC-08, N-[3-[3-(3-Fluorophenyl)-3-pyrrolidin-1-yl-9-azaspiro[5.5]undecan-9-yl]-3-oxo-1-phenyl-propyl]-naphthalene-2-sulfonic acid amide] | 96 | 81
Cc1cccc(Cl)c1S(=O)(=O)N(CCOCC(=O)N1CCC2(CC1)CCC(c1cccs1)(N(C)C)CC2)C1CC1 [CC-09, 2-Chloro-N-cyclopropyl-N-[2-[2-(3-dimethylamino-3-thiophen-2-yl-9-azaspiro[5.5]undecan-9-yl)-2-oxo-ethoxy]-ethyl]-6-methyl-benzenesulfonic acid amide] | 97 | 100
CN(C)C1(c2cccs2)CCC2(CCN(C(=O)CC3CCCCN3S(=O)(=O)c3cccc(C(F)(F)F)c3)CC2)CC1 (stereo not shown) [CC-10, 1-(3-Dimethylamino-3-thiophen-2-yl-9-azaspiro[5.5]undecan-9-yl)-2-[1-[[3-(trifluoromethyl)phenyl]sulfonyl]-piperidin-2-yl]-ethanone] | 79 | 84
COc1cc(C)c(S(=O)(=O)N2CCCCC2COCC(=O)N2CCC3(CC2)CCC(c2cccs2)(N(C)C)CC3)c(C)c1 (stereo not shown) [CC-11, 1-(3-Dimethylamino-3-thiophen-2-yl-9-azaspiro[5.5]undecan-9-yl)-2-[[1-[(4-rnethoxy-2,6-dimethyl-phenyl)sulfonyl]-piperidin-2-yl]-methoxy]-ethanone] | 98 | 100
COc1cc(C)c(S(=O)(=O)N(CCOCC(=O)N2CCC3(CC2)CCC(c2cccs2)(N(C)C)CC3)C2CC2)c(C)c1 [CC-12, N-Cyclopropyl-N-[2-[2-(3-dimethylamino-3-thiophen-2-yl-9-azaspiro[5.5]undecan-9-yl)-2-oxo-ethoxy]-ethyl]-4-methoxy-2,6-dimethyl-benzenesulfonic acid amide] | 97 | 100
Cc1cccc(Cl)c1S(=O)(=O)N1CCCCC1COCC(=O)N1CCC2(CC1)CCC(c1cccs1)(N(C)C)CC2 (stereo not shown) [CC-13, 2-[[1-[(2-Chloro-6-methyl-phenyl)sulfonyl]-piperidin-2-yl]-methoxy]-1-(3-dimethylamino-3-thiophen-2-yl-9-azaspiro[5.5]undecan-9-yl)-ethanone] | 98 | 100
Cc1cc(S(=O)(=O)N2CCCCC2CCC(=O)N2CCC3(CC2)CCC(c2cccs2)(N(C)C)CC3)c(C)cc1Cl (stereo not shown) [CC-14, 3-[1-[(4-Chloro-2,5-dimethyl-phenyl)sulfonyl]-piperidin-2-yl]-1-(3-dimethylamino-3-thiophen-2-yl-9-azaspiro[5.5]undecan-9-yl)-propan-1-one] | 101 | 99
